Legend:
[1] = target: hNAMPT protein (Homo sapiens (Human), UniProt P43490); test: NAMPT enzyme assay (TR-FRET/HTRF with BodiPY ligand); format: binding; conditions: for inhibition at 1 µM: NAMPT inhibition at compound concentration 1 μM, read-out: Percent Inhibition; for IC50: NAMPT inhibition, IC50 range class
Outline: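 Ligand displacement by TR-FRET: BodiPY emission (520 nm) over terbium (486 nm) after 320 nm excitation. Compound, BodiPY ligand, hNAMPT and anti-6His-Tb incubated 1 h at room temperature, dark, at pH 7.5. Percent inhibition computed versus DMSO; concentration-response curves fitted for IC50.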

[2] = tested on: PC3 cells; test: PC3 growth inhibition (Cell-titer glo, 72 hours); format: cell-based; conditions: Homo sapiens, PC-3, 72 h, read-out: Percent Viability, PC3 cells, compound concentration 1.667 μM, 72 hours
Outline: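 After 72 h compound treatment in AIM serum-free medium (37 °C, 5% CO2), viability of overnight-plated PC3 cells (8×10^4 cells/ml, RPMI1640-maintained) is read by CellTiter-Glo luminescence versus DMSO. Curves give GI50, LD50 or single-concentration % remaining viability.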

hNAMPT protein, sequence (P43490 whole entry): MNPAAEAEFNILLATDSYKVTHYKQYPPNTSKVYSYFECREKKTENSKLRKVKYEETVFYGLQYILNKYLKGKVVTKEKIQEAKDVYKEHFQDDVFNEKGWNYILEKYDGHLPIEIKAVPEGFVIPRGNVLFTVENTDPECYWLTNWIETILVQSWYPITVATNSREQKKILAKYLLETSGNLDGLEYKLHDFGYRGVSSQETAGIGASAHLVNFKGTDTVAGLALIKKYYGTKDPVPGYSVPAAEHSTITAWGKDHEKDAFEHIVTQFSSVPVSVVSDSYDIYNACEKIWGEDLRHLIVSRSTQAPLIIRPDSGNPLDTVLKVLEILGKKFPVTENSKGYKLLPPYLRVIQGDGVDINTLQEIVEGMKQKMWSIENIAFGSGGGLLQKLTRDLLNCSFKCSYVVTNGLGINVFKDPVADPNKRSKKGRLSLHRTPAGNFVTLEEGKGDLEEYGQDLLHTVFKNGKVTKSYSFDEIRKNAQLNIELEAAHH

Compound | inhibition at 1 µM [1] [%] | IC50 [1] [nM] | viability at 1.667 µM [2] [%]
CCOc1cc(-c2cccnc2)nc2cc(C(=O)NCCCc3nnc[nH]3)ccc12 [Compound I-209, 4-ethoxy-2-(pyridin-3-yl)-N-[3-(4H-1,2,4-triazol-3-yl)propyl]quinoline-7-carboxamide] | 92 | 50 to 100 | 1
CCOc1cc(-c2ccc(F)cc2)nc2cc(C(=O)NCCc3ccn[nH]3)ccc12 [Compound I-46, 4-ethoxy-2-(4-fluorophenyl)-N-[2-(1H-pyrazol-5-yl)ethyl]quinoline-7-carboxamide] | 97 | 10 to 50 | 3
CCOc1cc(-c2ccc(C)nc2OC)nc2cc(C(=O)NCCCc3cnn[nH]3)ccc12 [Compound I-103, 4-ethoxy-2-(2-methoxy-6-methylpyridin-3-yl)-N-[3-(1H-1,2,3-triazol-5-yl)propyl]quinoline-7-carboxamide] | > 99 | 10 to 50 | 2
CCOc1cc(OCC)c2ccc(C(=O)NCCCc3ncc[nH]3)cc2n1 [Compound I-61, N-(3-(1H-Imidazol-2-yl)propyl)-2,4-diethoxyquinoline-7-carboxamide] | 99 | < 10 | 2
CCOc1cc(-c2ccnc(OC)c2)nc2cc(C(=O)NCc3nc4cnccc4[nH]3)ccc12 [Compound I-194, 4-ethoxy-N-(1H-imidazo[4,5-c]pyridin-2-ylmethyl)-2-(2-methoxypyridin-4-yl)quinoline-7-carboxamide] | 100 | < 10 | 3
CCOc1cc(-c2ccc(F)cc2)nc2cc(C(=O)NCCc3nn[nH]n3)ccc12 [Compound I-221, 4-ethoxy-2-(4-fluorophenyl)-N-[2-(2H-tetrazol-5-yl)ethyl]quinoline-7-carboxamide] | 53 | > 100 | 89
CCOc1cc(-c2cc(OC)ncc2F)nc2cc(C(=O)NCCCc3ncc[nH]3)ccc12 [Compound I-12, 4-ethoxy-2-(5-fluoro-2-methoxypyridin-4-yl)-N-[3-(1H-imidazol-2-yl)propyl]quinoline-7-carboxamide] | > 99 | < 10 | 1
CCOc1cc(-c2ccc(C)nc2)nc2cc(C(=O)NCCc3c[nH]nc3C)ccc12 [Compound I-113, 4-ethoxy-N-[2-(3-methyl-1H-pyrazol-4-yl)ethyl]-2-(6-methylpyridin-3-yl)quinoline-7-carboxamide] | 97 | 10 to 50 | 2
CCOc1cc(-c2ccnc(C)c2)nc2cc(C(=O)NCCc3c[nH]nc3C)ccc12 [Compound I-146, 4-ethoxy-N-[2-(3-methyl-1H-pyrazol-4-yl)ethyl]-2-(2-methylpyridin-4-yl)quinoline-7-carboxamide] | 87 | 50 to 100 | 2
CCNc1nc(-c2ccc(F)cc2)nc2cc(C(=O)NCCCc3ncc[nH]3)ccc12 [Compound I-41, 4-(ethylamino)-2-(4-fluorophenyl)-N-[3-(1H-imidazol-2-yl)propyl]quinazoline-7-carboxamide] | 92 | > 100 | 2
CCOc1cc(-c2ccn(C)c(=O)c2)nc2cc(C(=O)NCCCc3cnn[nH]3)ccc12 [Compound I-95, 4-ethoxy-2-(1-methyl-2-oxo-1,2-dihydropyridin-4-yl)-N-[3-(1H-1,2,3-triazol-5-yl)propyl]quinoline-7-carboxamide] | > 99 | < 10 | 1
COCCOc1cc(-c2ccnc(C)c2)nc2cc(C(=O)NCc3ccn4ncnc4c3)ccc12 [Compound I-69, 4-(2-methoxyethoxy)-2-(2-methylpyridin-4-yl)-N-([1,2,4]triazolo[1,5-a]pyridin-7-ylmethyl)quinoline-7-carboxamide] | 86 | > 100 | 4
CCOc1cc(-c2ccc(OC)nc2)nc2cc(C(=O)NCCc3c[nH]nn3)ccc12 [Compound I-185, 4-ethoxy-2-(6-methoxypyridin-3-yl)-N-[2-(1H-1,2,3-triazol-4-yl)ethyl]quinoline-7-carboxamide] | 98 | 10 to 50 | 2
CCOc1cc(-c2ccc(C)nc2OC)nc2cc(C(=O)NCCc3[nH]nnc3C)ccc12 [Compound I-87, 4-ethoxy-2-(2-methoxy-6-methylpyridin-3-yl)-N-[2-(4-methyl-1H-1,2,3-triazol-5-yl)ethyl]quinoline-7-carboxamide] | 94 | 10 to 50 | 2
CCOc1cc(-c2ccnc(C)c2)nc2cc(C(=O)NCCCc3cnn[nH]3)ccc12 [Compound I-117, 4-ethoxy-2-(2-methylpyridin-4-yl)-N-[3-(1H-1,2,3-triazol-5-yl)propyl]quinoline-7-carboxamide] | 100 | < 10 | 2
CCOc1cc(-c2ccccc2)nc2cc(C(=O)NCCCc3nnc[nH]3)ccc12 [Compound I-207, 4-ethoxy-2-phenyl-N-[3-(4H-1,2,4-triazol-3-yl)propyl]quinoline-7-carboxamide] | 96 | 10 to 50 | 2
Cc1cc(-c2nc(-c3ccc(F)cc3)nc3cc(C(=O)NCCCc4nnc[nH]4)ccc23)ccn1 [Compound I-162, 2-(4-fluorophenyl)-4-(2-methylpyridin-4-yl)-N-[3-(4H-1,2,4-triazol-3-yl)propyl]quinazoline-7-carboxamide] | 94 | 10 to 50 | 2
CCOc1cc(-c2cc(F)ccc2OC)nc2cc(C(=O)NCc3nc4cnccc4n3C)ccc12 [Compound I-179, 4-ethoxy-2-(5-fluoro-2-methoxyphenyl)-N-[(1-methyl-1H-imidazo[4,5-c]pyridin-2-yl)methyl]quinoline-7-carboxamide] | 95 | 50 to 100 | 2
CCOc1cc(-c2ccc(OC)nc2C)nc2cc(C(=O)NCCCc3nnc[nH]3)ccc12 [Compound I-138, 4-ethoxy-2-(6-methoxy-2-methylpyridin-3-yl)-N-[3-(4H-1,2,4-triazol-3-yl)propyl]quinoline-7-carboxamide] | 89 | 50 to 100 | 2
CCOc1cc(-c2cccnc2OC)nc2cc(C(=O)NCCCc3ccn[nH]3)ccc12 [Compound I-150, 4-ethoxy-2-(2-methoxypyridin-3-yl)-N-[3-(1H-pyrazol-5-yl)propyl]quinoline-7-carboxamide] | 95 | 10 to 50 | 2
CCOc1cc(-c2ccc(F)cc2)nc2cc(C(=O)NCCCn3cccn3)ccc12 [Compound I-43, 4-ethoxy-2-(4-fluorophenyl)-N-[3-(1H-pyrazol-1-yl)propyl]quinoline-7-carboxamide] | 99 | < 10 | 77
CCOc1cc(-c2cc(C)cnc2OC)nc2cc(C(=O)NCCCc3nnc[nH]3)ccc12 [Compound I-159, 4-ethoxy-2-(2-methoxy-5-methylpyridin-3-yl)-N-[3-(4H-1,2,4-triazol-3-yl)propyl]quinoline-7-carboxamide] | 99 | 10 to 50 | 2
CCOc1cc(-c2ccc(F)cc2)nc2cc(C(=O)NCc3cc4cnccc4s3)ccc12 [Compound I-79, 4-ethoxy-2-(4-fluorophenyl)-N-(thieno[3,2-c]pyridin-2-ylmethyl)quinoline-7-carboxamide] | 99 | < 10 | 2
CCOc1cc(-c2cc(Cl)ccc2F)nc2cc(C(=O)NCCCc3ncc[nH]3)ccc12 [Compound I-11, 2-(5-chloro-2-fluorophenyl)-4-ethoxy-N-[3-(1H-imidazol-2-yl)propyl]quinoline-7-carboxamide] | > 99 | < 10 | 1
CCOc1cc(-c2ccc(F)cc2)nc2cc(C(=O)NCCCc3ccc(C)nc3)ccc12 [Compound I-227, 4-ethoxy-2-(4-fluorophenyl)-N-[3-(6-methylpyridin-3-yl)propyl]quinoline-7-carboxamide] | 100 | < 10 | 6
CCOc1cc(-c2ccc(F)cc2)nc2cc(C(=O)NCCCc3nnc(N)[nH]3)ccc12 [Compound I-220, N-[3-(5-amino-4H-1,2,4-triazol-3-yl)propyl]-4-ethoxy-2-(4-fluorophenyl)quinoline-7-carboxamide] | 92 | 50 to 100 | 2
CCOc1cc(-c2ccc(F)cc2OC)nc2cc(C(=O)NCCc3cnn[nH]3)ccc12 [Compound I-108, 4-ethoxy-2-(4-fluoro-2-methoxyphenyl)-N-[2-(1H-1,2,3-triazol-5-yl)ethyl]quinoline-7-carboxamide] | 99 | 10 to 50 | 3
CC(C)(C)OCc1nc(-c2ccc(Cl)cc2)nc2cc(C(=O)NCCCc3ncc[nH]3)ccc12 [Compound I-30, 4-(tert-butoxymethyl)-2-(4-chlorophenyl)-N-[3-(1H-imidazol-2-yl)propyl]quinazoline-7-carboxamide] | 91 | 50 to 100 | 1

— US10323018B2 (Millennium Pharmaceuticals, Inc., priority 2015, dated 2019)
